Data as given in ChEMBL document CHEMBL3784938, “Novel heterocyclic ring-fused oleanolic acid derivatives as osteoclast inhibitors for osteoporosis” (Medchemcomm, 2016).
The source made the active and inactive calls. The rule behind the calls is not given here.

Key:
RAW264.7 [1] = experiment: cells; conditions: Mus musculus, RAW264.7, 120 h
Description: Antiosteoclast activity in mouse RAW264.7 cells assessed as inhibition of RANKL-induced osteoclast differentiation after 5 days by TRAP assay

[2] = Cytotoxicity against mouse RAW264.7 cells assessed as inhibition of cell viability at 10 uM after 24 hrs by MTT assay; format: cell-based; conditions: read-out: INH
[3] = Cytotoxicity against mouse RAW264.7 cells assessed as inhibition of cell viability at 2 uM after 24 hrs by MTT assay; format: cell-based; conditions: read-out: INH
[4] = Cytotoxicity against mouse RAW264.7 cells assessed as inhibition of cell viability at 5 uM after 24 hrs by MTT assay; format: cell-based; conditions: read-out: INH
[5] = Cytotoxicity against mouse RAW264.7 cells assessed as inhibition of cell viability at 20 uM after 24 hrs by MTT assay; format: cell-based; conditions: read-out: INH
RAW264.7 [6] = experiment: Antiosteoclast activity in mouse RAW264.7 cells assessed as inhibition of RANKL-induced osteoclast differentiation at 20 uM after 5 days by TRAP assay; format: functional; conditions: RAW264.7, 120 h
RAW264.7 [7] = experiment: Antiosteoclast activity in mouse RAW264.7 cells assessed as inhibition of RANKL-induced osteoclast differentiation at 2 uM after 5 days by TRAP assay; format: functional; conditions: RAW264.7, 120 h
Rattus norvegicus [8] = experiment: Toxicity in ovariectomy rat model assessed as undeveloped endometrial luminal epithelium at 0.1 to 10 mg/kg/day, po administered for 4 weeks by haematoxylin/eosin staining based microscopy; format: organism-based; conditions: in vivo, 672 h
RAW264.7 [9] = experiment: Downregulation of RANKL-induced CTR mRNA expression in mouse RAW264.7 cells at 1 to 5 uM after 4 days by RT-qPCR analysis; format: functional, cell-based
Rattus norvegicus [10] = experiment: Antiosteoporotic effect in ovariectomy rat model assessed as increase in bone mineral density of lumbar spine L3 to L5 at 0.1 mg/kg/day, po administered for 4 weeks by dual-energy X-ray absorptiometry relative to control; format: functional, organism-based
RAW264.7 [11] = experiment: Downregulation of RANKL-induced NFATc1 protein expression in mouse RAW264.7 cells at 5 uM after 2 days by Western blot analysis; format: functional, cell-based
RAW264.7 [12] = experiment: Antiosteoclast activity in mouse RAW264.7 cells assessed as reduction in multinucleated osteoclasts at 2 to 20 uM after 5 days by TRAP assay; format: functional, cell-based
Rattus norvegicus [13] = experiment: Toxicity in ovariectomy rat model assessed as reduction in uterine weight at 0.1 to 10 mg/kg/day, po administered for 4 weeks; format: organism-based; conditions: in vivo, 672 h
Rattus norvegicus [14] = experiment: Antiosteoporotic effect in ovariectomy rat model assessed as increase in bone mineral density of lumbar spine L3 to L5 at 10 mg/kg/day, po administered for 4 weeks by dual-energy X-ray absorptiometry relative to control; format: functional, organism-based
RAW264.7 [15] = experiment: Downregulation of RANKL-induced TRAP mRNA expression in mouse RAW264.7 cells at 1 to 5 uM after 4 days by RT-qPCR analysis; format: functional, cell-based
RAW264.7 [16] = experiment: Downregulation of RANKL-induced c-Fos mRNA expression in mouse RAW264.7 cells at 1 to 5 uM after 2 days by RT-qPCR analysis; format: functional, cell-based
RAW264.7 [17] = experiment: Downregulation of RANKL-induced NFATc1 mRNA expression in mouse RAW264.7 cells at 5 uM after 2 days by RT-qPCR analysis; format: functional, cell-based
Rattus norvegicus [18] = experiment: Toxicity in ovariectomy rat model assessed as undeveloped endometrial gland at 0.1 to 10 mg/kg/day, po administered for 4 weeks by haematoxylin/eosin staining based microscopy; format: organism-based; conditions: in vivo, 672 h
RAW264.7 [19] = experiment: Downregulation of RANKL-induced CathK mRNA expression in mouse RAW264.7 cells at 1 to 5 uM after 4 days by RT-qPCR analysis; format: functional, cell-based
Rattus norvegicus [20] = experiment: Antiosteoporotic effect in ovariectomy rat model assessed as increase in bone mineral density of lumbar spine L3 to L5 at 1 mg/kg/day, po administered for 4 weeks by dual-energy X-ray absorptiometry relative to control; format: functional, organism-based
RAW264.7 [21] = experiment: Downregulation of RANKL-induced c-Fos protein expression in mouse RAW264.7 cells at 5 uM after 2 days by Western blot analysis; format: functional, cell-based

IC50 (RAW264.7 [1])	Compound	cytotoxicity at 24 h, 10 µM [2]	cytotoxicity at 24 h, 2 µM [3]	cytotoxicity at 24 h, 5 µM [4]	cytotoxicity at 24 h, 20 µM [5]	inhibition at 20 µM (RAW264.7 [6])	inhibition at 2 µM (RAW264.7 [7])	also measured
88 nM	COc1ccc(S(=O)(=O)n2cc3c(n2)C(C)(C)[C@@H]2CC[C@]4(C)[C@H](CC=C5[C@@H]6CC(C)(C)CC[C@]6(C(=O)NCCN6CCCCC6)CC[C@]54C)[C@@]2(C)C3)cc1	67.5%	0%	0%	72.9%	100%	100%	
43 nM	CC1(C)CC[C@]2(C(=O)NCCN3CCCCC3)CC[C@]3(C)C(=CC[C@@H]4[C@@]5(C)Cc6cn(S(=O)(=O)c7ccc(F)cc7)nc6C(C)(C)[C@@H]5CC[C@]43C)[C@@H]2C1	74%	0%	0%	70.8%	100%	100%	
24 nM	COc1ccc(S(=O)(=O)n2cc3c(n2)C(C)(C)[C@@H]2CC[C@]4(C)[C@H](CC=C5[C@@H]6CC(C)(C)CC[C@]6(C(=O)NC6CCN(Cc7ccccc7)CC6)CC[C@]54C)[C@@]2(C)C3)cc1	6.6%	0%	0%	58.2%	100%	90%	Activity (Rattus norvegicus [8]): Non-toxic; inhibition (RAW264.7 [9]): Active; Activity (Rattus norvegicus [10]): inactive; inhibition (RAW264.7 [11]): Active; inhibition (RAW264.7 [12]): Active; Activity (Rattus norvegicus [13]): Non-toxic; Activity (Rattus norvegicus [14]): Active; inhibition (RAW264.7 [15]): Active; inhibition (RAW264.7 [16]): Active; inhibition (RAW264.7 [17]): Active; Activity (Rattus norvegicus [18]): Non-toxic; inhibition (RAW264.7 [19]): Active; Activity (Rattus norvegicus [20]): Active; inhibition (RAW264.7 [21]): Active
78 nM	CC1(C)CC[C@]2(C(=O)NCCN3CCCCC3)CC[C@]3(C)C(=CC[C@@H]4[C@@]5(C)Cc6cn(S(=O)(=O)c7ccc(Br)cc7)nc6C(C)(C)[C@@H]5CC[C@]43C)[C@@H]2C1	67.2%	0%	0%	70.8%	100%	100%	
68 nM	CC1(C)CC[C@]2(C(=O)NCCN3CCCCC3)CC[C@]3(C)C(=CC[C@@H]4[C@@]5(C)Cc6cn(S(=O)(=O)c7ccc(C(F)(F)F)cc7)nc6C(C)(C)[C@@H]5CC[C@]43C)[C@@H]2C1					100%	100%	
99 nM	CC1(C)CC[C@]2(C(=O)NCCN3CCCCC3)CC[C@]3(C)C(=CC[C@@H]4[C@@]5(C)Cc6c[nH]nc6C(C)(C)[C@@H]5CC[C@]43C)[C@@H]2C1	0%	0%	0%	0%	100%	95.1%	
	CC1(C)CC[C@]2(C(=O)NCCN3CCCCC3)CC[C@]3(C)C(=CC[C@@H]4[C@@]5(C)Cc6cn(S(=O)(=O)c7ccc(C(C)(C)C)cc7)nc6C(C)(C)[C@@H]5CC[C@]43C)[C@@H]2C1					89.8%	20.8%	
	CC1(C)CC[C@]2(C(=O)NCCCN3CCOCC3)CC[C@]3(C)C(=CC[C@@H]4[C@@]5(C)Cc6cn(S(=O)(=O)c7ccc(C(C)(C)C)cc7)nc6C(C)(C)[C@@H]5CC[C@]43C)[C@@H]2C1					97.7%	56.1%	
	CC1(C)CC[C@]2(C(=O)O)CC[C@]3(C)C(=CC[C@@H]4[C@@]5(C)Cc6cn[nH]c6C(C)(C)[C@@H]5CC[C@]43C)[C@@H]2C1					99%	32.1%	
	Cc1noc(C)c1S(=O)(=O)n1cc2c(n1)C(C)(C)[C@@H]1CC[C@]3(C)[C@H](CC=C4[C@@H]5CC(C)(C)CC[C@]5(C(=O)NC5CCN(Cc6ccccc6)CC5)CC[C@]43C)[C@@]1(C)C2					69.5%	64%	
	CC1(C)CC[C@]2(C(=O)NCc3ccccc3)CC[C@]3(C)C(=CC[C@@H]4[C@@]5(C)Cc6cn(S(=O)(=O)c7ccc(Cl)cc7)nc6C(C)(C)[C@@H]5CC[C@]43C)[C@@H]2C1					0%	0%	
	Cn1cnc(S(=O)(=O)n2cc3c(n2)C(C)(C)[C@@H]2CC[C@]4(C)[C@H](CC=C5[C@@H]6CC(C)(C)CC[C@]6(C(=O)NCCN6CCCCC6)CC[C@]54C)[C@@]2(C)C3)c1					100%	89.5%	
	CC1(C)CC[C@]2(C(=O)NC3CCN(Cc4ccccc4)CC3)CC[C@]3(C)C(=CC[C@@H]4[C@@]5(C)Cc6cn(S(=O)(=O)c7ccc(C(C)(C)C)cc7)nc6C(C)(C)[C@@H]5CC[C@]43C)[C@@H]2C1					65.6%	39.2%	
	CC1(C)CC[C@]2(C(=O)NC3CCN(Cc4ccccc4)CC3)CC[C@]3(C)C(=CC[C@@H]4[C@@]5(C)Cc6cnoc6C(C)(C)[C@@H]5CC[C@]43C)[C@@H]2C1					99.6%	17.6%	
35 nM	COc1ccc(S(=O)(=O)n2cc3c(n2)C(C)(C)[C@@H]2CC[C@]4(C)[C@H](CC=C5[C@@H]6CC(C)(C)CC[C@]6(C(=O)NC6CCN(Cc7ccccc7)CC6)CC[C@]54C)[C@@]2(C)C3)cc1OC	0%	0%	0%	0%	100%	93.2%	
	Cc1noc(C)c1S(=O)(=O)n1cc2c(n1)C(C)(C)[C@@H]1CC[C@]3(C)[C@H](CC=C4[C@@H]5CC(C)(C)CC[C@]5(C(=O)NCCN5CCCCC5)CC[C@]43C)[C@@]1(C)C2	70.7%	0%	0%	72%	100%	22.3%	
	CC1(C)CC[C@]2(C(=O)O)CC[C@]3(C)C(=CC[C@@H]4[C@@]5(C)Cc6cnoc6C(C)(C)[C@@H]5CC[C@]43C)[C@@H]2C1					100%	27.4%	
	Cc1noc(C)c1S(=O)(=O)n1cc2c(n1)C(C)(C)[C@@H]1CC[C@]3(C)[C@H](CC=C4[C@@H]5CC(C)(C)CC[C@]5(C(=O)NCCCN5CCOCC5)CC[C@]43C)[C@@]1(C)C2					100%	75.2%	
	COc1ccc(S(=O)(=O)n2cc3c(n2)C(C)(C)[C@@H]2CC[C@]4(C)[C@H](CC=C5[C@@H]6CC(C)(C)CC[C@]6(C(=O)NCCCN6CCOCC6)CC[C@]54C)[C@@]2(C)C3)cc1OC					50.9%	34.4%	
	Cn1cnc(S(=O)(=O)n2cc3c(n2)C(C)(C)[C@H]2CC[C@@]4(C)[C@@H](CC=C5[C@H]6CC(C)(C)CC[C@@]6(C(=O)NC6CCN(Cc7ccccc7)CC6)CC[C@@]54C)[C@]2(C)C3)c1					100%	80.7%	
	CC1(C)CC[C@]2(C(=O)NC3CCN(Cc4ccccc4)CC3)CC[C@]3(C)C(=CC[C@@H]4[C@@]5(C)Cc6cn(S(=O)(=O)c7ccc(Cl)cc7)nc6C(C)(C)[C@@H]5CC[C@]43C)[C@@H]2C1					41.3%	18.2%	
130 nM	COc1ccc(S(=O)(=O)n2cc3c(n2)C(C)(C)[C@@H]2CC[C@]4(C)[C@H](CC=C5[C@@H]6CC(C)(C)CC[C@]6(C(=O)NCCN6CCCCC6)CC[C@]54C)[C@@]2(C)C3)cc1OC	52.6%	0%	0%	71.1%	100%	100%	
	CC1(C)CC[C@]2(C(=O)NCCCN3CCOCC3)CC[C@]3(C)C(=CC[C@@H]4[C@@]5(C)Cc6c[nH]nc6C(C)(C)[C@@H]5CC[C@]43C)[C@@H]2C1					100%	49.8%	

Compound	IC50 (RAW264.7 [1])	cytotoxicity at 24 h, 10 µM [2]	cytotoxicity at 24 h, 2 µM [3]	cytotoxicity at 24 h, 5 µM [4]	cytotoxicity at 24 h, 20 µM [5]	inhibition at 20 µM (RAW264.7 [6])	inhibition at 2 µM (RAW264.7 [7])	also measured
NCCCC(O)(P(=O)(O)O)P(=O)(O)O [ALENDRONATE SODIUM]	84 nM						93.2%	Activity (Rattus norvegicus [20]): Active
